PubChem BioAssay (NCI)
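Dose response: 5 concentrations. Exposure: 48 h. Format: 96-well plates. Endpoint: linear interpolation; highest concentration if not reached. Here, GI50 denotes the concentration required for 50% inhibition of growth. At the TGI there is no net growth.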

How the values were obtained:
Assay in all cases: growth of human tumour cells (NCI), 48 h
786-0 renal = system: 786-0 renal
A498 renal = system: A498 renal
A549 NSCLC = system: A549 NSCLC
ACHN renal = system: ACHN renal
BT-549 breast = system: BT-549 breast
CAKI-1 renal = system: CAKI-1 renal
CCRF-CEM leukemia = system: CCRF-CEM leukemia
COLO 205 colon = system: COLO 205 colon
DU-145 prostate = system: DU-145 prostate
EKVX NSCLC = system: EKVX NSCLC
HCC-2998 colon = system: HCC-2998 colon
HCT-116 colon = system: HCT-116 colon
HCT-15 colon = system: HCT-15 colon
HL-60(TB) leukemia = system: HL-60(TB) leukemia
HOP-62 NSCLC = system: HOP-62 NSCLC
HOP-92 NSCLC = system: HOP-92 NSCLC
HS 578T breast = system: HS 578T breast
HT29 colon = system: HT29 colon
IGROV1 ovarian = system: IGROV1 ovarian
K-562 leukemia = system: K-562 leukemia
KM12 colon = system: KM12 colon
LOX IMVI melanoma = system: LOX IMVI melanoma
M14 melanoma = system: M14 melanoma
MALME-3M melanoma = system: MALME-3M melanoma
MCF7 breast = system: MCF7 breast
MDA-MB-231 breast = system: MDA-MB-231 breast
MDA-MB-435 = system: MDA-MB-435
MOLT-4 leukemia = system: MOLT-4 leukemia
NCI-H226 lung = system: NCI-H226 lung
NCI-H23 lung = system: NCI-H23 lung
NCI-H460 lung = system: NCI-H460 lung
NCI-H522 lung = system: NCI-H522 lung
NCI/ADR-RES ovarian = system: NCI/ADR-RES ovarian
OVCAR-3 ovarian = system: OVCAR-3 ovarian
OVCAR-4 ovarian = system: OVCAR-4 ovarian
OVCAR-5 ovarian = system: OVCAR-5 ovarian
OVCAR-8 ovarian = system: OVCAR-8 ovarian
PC-3 prostate = system: PC-3 prostate
RPMI-8226 leukemia = system: RPMI-8226 leukemia
RXF 393 renal = system: RXF 393 renal
SF-268 CNS = system: SF-268 CNS
SF-295 CNS = system: SF-295 CNS
SF-539 CNS = system: SF-539 CNS
SK-MEL-2 melanoma = system: SK-MEL-2 melanoma
SK-MEL-28 melanoma = system: SK-MEL-28 melanoma
SK-MEL-5 melanoma = system: SK-MEL-5 melanoma
SK-OV-3 ovarian = system: SK-OV-3 ovarian
SN12C renal = system: SN12C renal
SNB-19 CNS = system: SNB-19 CNS
SNB-75 CNS = system: SNB-75 CNS
SR leukemia = system: SR leukemia
SW-620 colon = system: SW-620 colon
T-47D breast = system: T-47D breast
TK-10 renal = system: TK-10 renal
U251 CNS = system: U251 CNS
UACC-257 melanoma = system: UACC-257 melanoma
UACC-62 melanoma = system: UACC-62 melanoma
UO-31 renal = system: UO-31 renal

With `O=C(N/N=C/c1ccncc1)c1ccc(F)cc1` the GI50 (786-0 renal) was greater than 40 µM, the TGI (786-0 renal) was greater than 40 µM and the GI50 (A498 renal) was 34.8 µM. It also gave a TGI (A498 renal) greater than 40 µM, a GI50 (A549 NSCLC) greater than 40 µM and a TGI (A549 NSCLC) greater than 40 µM. For the same compound, the GI50 (ACHN renal) was greater than 40 µM, the TGI (ACHN renal) was greater than 40 µM and the GI50 (BT-549 breast) was greater than 40 µM. For the same compound, the TGI (BT-549 breast) was greater than 40 µM, the GI50 (CAKI-1 renal) was greater than 40 µM and the TGI (CAKI-1 renal) was greater than 40 µM. It also gave a GI50 (CCRF-CEM leukemia) greater than 40 µM, a TGI (CCRF-CEM leukemia) greater than 40 µM and a GI50 (COLO 205 colon) greater than 40 µM. For the same compound, the TGI (COLO 205 colon) was greater than 40 µM, the GI50 (DU-145 prostate) was greater than 40 µM and the TGI (DU-145 prostate) was greater than 40 µM. For the same compound, the GI50 (EKVX NSCLC) was greater than 40 µM, the TGI (EKVX NSCLC) was greater than 40 µM and the GI50 (HCC-2998 colon) was greater than 40 µM. The TGI (HCC-2998 colon) was greater than 40 µM, the GI50 (HCT-116 colon) was greater than 40 µM and the TGI (HCT-116 colon) was greater than 40 µM. For the same compound, the GI50 (HCT-15 colon) was greater than 40 µM, the TGI (HCT-15 colon) was greater than 40 µM and the GI50 (HL-60(TB) leukemia) was greater than 40 µM. The TGI (HL-60(TB) leukemia) was greater than 40 µM, the GI50 (HOP-62 NSCLC) was greater than 40 µM and the TGI (HOP-62 NSCLC) was greater than 40 µM. It also gave a GI50 (HOP-92 NSCLC) greater than 40 µM, a TGI (HOP-92 NSCLC) greater than 40 µM and a GI50 (HS 578T breast) greater than 40 µM. The TGI (HS 578T breast) was greater than 40 µM, the GI50 (HT29 colon) was greater than 40 µM and the TGI (HT29 colon) was greater than 40 µM. The GI50 (IGROV1 ovarian) was greater than 40 µM, the TGI (IGROV1 ovarian) was greater than 40 µM and the GI50 (K-562 leukemia) was greater than 40 µM. It also gave a TGI (K-562 leukemia) greater than 40 µM, a GI50 (KM12 colon) greater than 40 µM and a TGI (KM12 colon) greater than 40 µM. It also gave a GI50 (LOX IMVI melanoma) greater than 40 µM, a TGI (LOX IMVI melanoma) greater than 40 µM and a GI50 (M14 melanoma) greater than 40 µM. For the same compound, the TGI (M14 melanoma) was greater than 40 µM, the GI50 (MALME-3M melanoma) was greater than 40 µM and the TGI (MALME-3M melanoma) was greater than 40 µM. For the same compound, the GI50 (MCF7 breast) was greater than 40 µM, the TGI (MCF7 breast) was greater than 40 µM and the GI50 (MDA-MB-231 breast) was greater than 40 µM. For the same compound, the TGI (MDA-MB-231 breast) was greater than 40 µM, the GI50 (MDA-MB-435) was greater than 40 µM and the TGI (MDA-MB-435) was greater than 40 µM. For the same compound, the GI50 (MOLT-4 leukemia) was greater than 40 µM, the TGI (MOLT-4 leukemia) was greater than 40 µM and the GI50 (NCI-H226 lung) was greater than 40 µM. The TGI (NCI-H226 lung) was greater than 40 µM, the GI50 (NCI-H23 lung) was greater than 40 µM and the TGI (NCI-H23 lung) was greater than 40 µM. The GI50 (NCI-H460 lung) was greater than 40 µM, the TGI (NCI-H460 lung) was greater than 40 µM and the GI50 (NCI-H522 lung) was greater than 40 µM. For the same compound, the TGI (NCI-H522 lung) was greater than 40 µM, the GI50 (NCI/ADR-RES ovarian) was greater than 40 µM and the TGI (NCI/ADR-RES ovarian) was greater than 40 µM. It also gave a GI50 (OVCAR-3 ovarian) greater than 40 µM, a TGI (OVCAR-3 ovarian) greater than 40 µM and a GI50 (OVCAR-4 ovarian) greater than 40 µM. It also gave a TGI (OVCAR-4 ovarian) greater than 40 µM, a GI50 (OVCAR-5 ovarian) greater than 40 µM and a TGI (OVCAR-5 ovarian) greater than 40 µM. The GI50 (OVCAR-8 ovarian) was greater than 40 µM, the TGI (OVCAR-8 ovarian) was greater than 40 µM and the GI50 (PC-3 prostate) was greater than 40 µM. For the same compound, the TGI (PC-3 prostate) was greater than 40 µM, the GI50 (RPMI-8226 leukemia) was greater than 40 µM and the TGI (RPMI-8226 leukemia) was greater than 40 µM. It also gave a GI50 (RXF 393 renal) greater than 40 µM, a TGI (RXF 393 renal) greater than 40 µM and a GI50 (SF-268 CNS) greater than 40 µM. It also gave a TGI (SF-268 CNS) greater than 40 µM, a GI50 (SF-295 CNS) greater than 40 µM and a TGI (SF-295 CNS) greater than 40 µM. It also gave a GI50 (SF-539 CNS) greater than 40 µM, a TGI (SF-539 CNS) greater than 40 µM and a GI50 (SK-MEL-2 melanoma) greater than 40 µM. The TGI (SK-MEL-2 melanoma) was greater than 40 µM, the GI50 (SK-MEL-28 melanoma) was greater than 40 µM and the TGI (SK-MEL-28 melanoma) was greater than 40 µM. For the same compound, the GI50 (SK-MEL-5 melanoma) was greater than 40 µM, the TGI (SK-MEL-5 melanoma) was greater than 40 µM and the GI50 (SK-OV-3 ovarian) was greater than 40 µM. For the same compound, the TGI (SK-OV-3 ovarian) was greater than 40 µM, the GI50 (SN12C renal) was greater than 40 µM and the TGI (SN12C renal) was greater than 40 µM. It also gave a GI50 (SNB-19 CNS) greater than 40 µM, a TGI (SNB-19 CNS) greater than 40 µM and a GI50 (SNB-75 CNS) greater than 40 µM. For the same compound, the TGI (SNB-75 CNS) was greater than 40 µM, the GI50 (SR leukemia) was greater than 40 µM and the TGI (SR leukemia) was greater than 40 µM. The GI50 (SW-620 colon) was greater than 40 µM, the TGI (SW-620 colon) was greater than 40 µM and the GI50 (T-47D breast) was greater than 40 µM. The TGI (T-47D breast) was greater than 40 µM, the GI50 (TK-10 renal) was greater than 40 µM and the TGI (TK-10 renal) was greater than 40 µM. The GI50 (U251 CNS) was greater than 40 µM, the TGI (U251 CNS) was greater than 40 µM and the GI50 (UACC-257 melanoma) was greater than 40 µM. It also gave a TGI (UACC-257 melanoma) greater than 40 µM, a GI50 (UACC-62 melanoma) greater than 40 µM and a TGI (UACC-62 melanoma) greater than 40 µM. It also gave a GI50 (UO-31 renal) greater than 40 µM and a TGI (UO-31 renal) greater than 40 µM.
